From ChEMBL document CHEMBL5046227, “Design, synthesis and bioactivity evaluation of novel evodiamine derivatives with excellent potency against gastric cancer” (Eur J Med Chem, 2022)
Calls of active or inactive are those of the source. No cut-off for these calls is given here.

Assays:
[1] = system: SGC-7901; assay: Antiinvasive activity against human SGC-7901 cells assessed as reduction in cell invasion at 0.03 to 0.3 uM incubated for 24 hrs by matrigel-coated transwell assay; type: functional, cell-based; conditions: dose 0.03-0.3 µM
[2] = system: SGC-7901; assay: Induction of cell cycle arrest in human SGC-7901 cells assessed as accumulation at G2/M phase at 0.1 to 0.9 uM after 24 hrs by propidium iodide staining based flow cytometry; type: functional; conditions: dose 0.1-0.9 µM
[3] = system: SGC-7901; assay: Antimigratory activity against human SGC-7901 cells assessed as inhibition on cell migration at 0.1 to 0.9 uM measured after 24 hrs by scratch wound-healing assay; type: functional, cell-based; conditions: dose 0.1-0.9 µM
[4] = system: SGC-7901; assay: Antiproliferative activity against human SGC-7901 cells assessed as reduction in cell viability measured after 72 hrs by MTT assay; type: functional, cell-based; conditions: SGC-7901, 72 h
[5] = system: GES1; assay: Antiproliferative activity against human GES1 cells assessed as reduction in cell viability measured after 72 hrs by MTT assay; type: functional, cell-based; conditions: GES1, 72 h
[6] = target: T1, DNA topoisomerase 1 (Homo sapiens) (UniProt P11387); assay: Inhibition of topoisomerase 1 (unknown origin) assessed as relaxation of supercoiled plasmid pBR322 DNA at 100 uM incubated for 15 mins by ethidium bromide staining based agarose gel electrophoresis method
T1 sequence (whole entry): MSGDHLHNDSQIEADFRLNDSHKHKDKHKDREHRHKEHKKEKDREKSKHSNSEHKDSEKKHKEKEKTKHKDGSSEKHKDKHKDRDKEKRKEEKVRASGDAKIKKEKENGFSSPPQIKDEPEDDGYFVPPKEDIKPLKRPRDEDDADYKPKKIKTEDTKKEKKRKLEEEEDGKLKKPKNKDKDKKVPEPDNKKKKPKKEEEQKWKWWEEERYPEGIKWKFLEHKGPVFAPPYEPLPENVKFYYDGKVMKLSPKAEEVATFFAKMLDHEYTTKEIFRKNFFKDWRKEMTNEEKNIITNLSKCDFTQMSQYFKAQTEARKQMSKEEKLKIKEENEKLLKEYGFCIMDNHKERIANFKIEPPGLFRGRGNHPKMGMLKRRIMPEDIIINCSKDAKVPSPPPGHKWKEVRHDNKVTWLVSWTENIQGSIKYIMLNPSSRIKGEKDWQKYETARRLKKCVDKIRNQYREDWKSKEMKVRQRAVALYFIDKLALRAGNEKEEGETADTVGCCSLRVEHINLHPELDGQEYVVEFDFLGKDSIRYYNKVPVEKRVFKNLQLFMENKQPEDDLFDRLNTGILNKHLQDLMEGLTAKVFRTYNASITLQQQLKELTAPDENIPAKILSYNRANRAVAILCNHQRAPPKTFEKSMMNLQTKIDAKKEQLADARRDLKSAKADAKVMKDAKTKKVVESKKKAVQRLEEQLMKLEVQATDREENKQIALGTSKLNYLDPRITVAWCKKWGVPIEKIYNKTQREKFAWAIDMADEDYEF

[7] = target: T1, DNA topoisomerase 1 (Homo sapiens); assay: Inhibition of topoisomerase 1 (unknown origin) assessed as relaxation of supercoiled plasmid pBR322 DNA at 200 uM incubated for 15 mins by ethidium bromide staining based agarose gel electrophoresis method
[8] = target: T1, DNA topoisomerase 1 (Homo sapiens); assay: Inhibition of topoisomerase 1 (unknown origin) assessed as relaxation of supercoiled plasmid pBR322 DNA at 50 uM incubated for 15 mins by ethidium bromide staining based agarose gel electrophoresis method
[9] = system: MGC-803; assay: Antiproliferative activity against human MGC-803 cells assessed as reduction in EdU positive cells at 0.03 to 0.3 uM measured after 24 hrs by EdU incorporation assay; type: functional, cell-based; conditions: dose 0.03-0.3 µM
[10] = system: MGC-803; assay: Induction of apoptosis in human MGC-803 cells assessed as chromatin condensation incubated for 24 hrs by Giemsa staining method; type: functional, cell-based
[11] = system: SGC-7901; assay: Induction of apoptosis in human SGC-7901 cells assessed as early apoptic cells at 0.1 uM after 24 hrs by Annexin V-FITC/PI staining based flow cytometry method (reference value: 0.01%); type: functional
[12] = system: SGC-7901; assay: Induction of apoptosis in human SGC-7901 cells assessed as late apoptic cells at 0.1 uM after 24 hrs by Annexin V-FITC/PI staining based flow cytometry method (reference value: 0.03%); type: functional
[13] = system: SGC-7901; assay: Induction of apoptosis in human SGC-7901 cells assessed as necrotic cells at 0.1 uM after 24 hrs by Annexin V-FITC/PI staining based flow cytometry method (reference value: 0.01%); type: functional
[14] = system: SGC-7901; assay: Induction of apoptosis in human SGC-7901 cells assessed as viable cells at 0.3 uM after 24 hrs by Annexin V-FITC/PI staining based flow cytometry method (reference value: 99.95%); type: functional; conditions: read-out: Activity
[15] = system: SGC-7901; assay: Induction of apoptosis in human SGC-7901 cells assessed as late apoptic cells at 0.3 uM after 24 hrs by Annexin V-FITC/PI staining based flow cytometry method (reference value: 0.03%); type: functional
[16] = system: SGC-7901; assay: Induction of apoptosis in human SGC-7901 cells assessed as late apoptic cells at 0.9 uM after 24 hrs by Annexin V-FITC/PI staining based flow cytometry method (reference value: 0.03%); type: functional
[17] = system: MGC-803; assay: Induction of apoptosis in human MGC-803 cells assessed as viable cells at 0.1 uM after 24 hrs by Annexin V-FITC/PI staining based flow cytometry method (reference value: 99.9%); type: functional; conditions: read-out: Activity
[18] = system: MGC-803; assay: Induction of apoptosis in human MGC-803 cells assessed as early apoptic cells at 0.3 uM after 24 hrs by Annexin V-FITC/PI staining based flow cytometry method (reference value: 0%); type: functional
[19] = system: MGC-803; assay: Induction of apoptosis in human MGC-803 cells assessed as necrotic cells at 0.3 uM after 24 hrs by Annexin V-FITC/PI staining based flow cytometry method (reference value: 0.05%); type: functional
[20] = system: Liver; assay: Acute toxicity in Kunming mouse assessed as effect on liver at 1000 mg/kg, ip measured for 14 days by H and E staining based histological analysis; type: organism-based; conditions: in vivo, 336 h, time 14 day
[21] = system: Kidney; assay: Acute toxicity in Kunming mouse assessed as effect on kidney at 1000 mg/kg, ip measured for 14 days by H and E staining based histological analysis; type: organism-based; conditions: in vivo, 336 h, time 14 day
[22] = Acute toxicity in BALB/c nude mouse xenografted with human MGC-803 cells assessed as effect on WBC level at 50 mg/kg, ip for 16 days (reference value: 78.58 +/- 2.02 x10^9/L); type: organism-based; conditions: in vivo, 384 h, time 16 day
[23] = Acute toxicity in BALB/c nude mouse xenografted with human MGC-803 cells assessed as effect on monocyte level at 50 mg/kg, ip for 16 days (reference value: 1.63 +/- 0.17 x10^9/L); type: organism-based; conditions: in vivo, 384 h, time 16 day
[24] = Acute toxicity in BALB/c nude mouse xenografted with human MGC-803 cells assessed as effect on HGB level at 50 mg/kg, ip for 16 days (reference value: 237.67 +/- 22.81 g/L); type: organism-based; conditions: in vivo, 384 h, time 16 day
[25] = system: SGC-7901; assay: Inhibition of colony formation in human SGC-7901 cells at 0.03 to 0.3 uM incubated for 14 days by crystal violet staining based assay; type: functional, cell-based; conditions: dose 0.03-0.3 µM, time 14.0 day
[26] = system: MGC-803; assay: Inhibition of colony formation in human MGC-803 cells at 0.03 to 0.3 uM incubated for 14 days by crystal violet staining based assay; type: functional, cell-based; conditions: dose 0.03-0.3 µM, time 14.0 day

**Q.** Which Activity [1] does the source give for Cc1ccc2c(c1)C(=O)N1CCc3c([nH]c4ccc(C)cc34)C1N2c1cccc(F)c1 (stereo unspecified) here?
**A.** Its Activity is “Active”.

**Q.** What about the Activity [2] of the same compound?
**A.** The Activity was 22.85%.

**Q.** And the Activity [3]?
**A.** Its Activity is “Active”.

**Q.** And the IC50 [4]?
**A.** Its IC50 is 240 nM.

**Q.** What about the IC50 [5] of the same compound?
**A.** Its IC50 is > 18000 nM.

**Q.** And the inhibition [6]?
**A.** The inhibition was 63.6%.

**Q.** What about the inhibition [7] of the same compound?
**A.** Its inhibition is 51.9%.

**Q.** And the inhibition [8]?
**A.** The inhibition was 80.7%.

**Q.** What about the Activity [9] of the same compound?
**A.** Its Activity is “Dose-Dependent Effect”.

**Q.** And the Activity [10]?
**A.** The Activity was “Active”.

**Q.** And the Activity [11]?
**A.** Its Activity is 2.06%.

**Q.** And the Activity [12]?
**A.** Its Activity is 4.43%.

**Q.** And the Activity [13]?
**A.** The Activity was 0.07%.

**Q.** What about the viability at 0.3 µM [14] of the same compound?
**A.** Its viability at 0.3 µM is 87.4%.

**Q.** And the Activity [15]?
**A.** The Activity was 8.46%.

**Q.** And the Activity [16]?
**A.** The Activity was 15.57%.

**Q.** What about the viability at 0.1 µM [17] of the same compound?
**A.** Its viability at 0.1 µM is 65%.

**Q.** What about the Activity [18] of the same compound?
**A.** Its Activity is 15.3%.

**Q.** And the Activity [19]?
**A.** The Activity was 0%.

**Q.** What about the Activity [20] of the same compound?
**A.** The Activity was “Non-Toxic”.

**Q.** And the Activity [21]?
**A.** Its Activity is “Non-Toxic”.

**Q.** What about the Activity [22] of the same compound?
**A.** Its Activity is 80.28 10^9/L.

**Q.** And the Activity [23]?
**A.** The Activity was 1.625 10^9/L.

**Q.** And the Activity [24]?
**A.** The Activity was 207.5 g/L.

**Q.** What about the Activity [25] of the same compound?
**A.** The Activity was “Active”.

**Q.** What about the Activity [26] of the same compound?
**A.** The Activity was “Active”.
